Source: patent publication US5475014A, “Oxazolidone derivative” (Eisai Co., Ltd., priority 1991, dated 1995)

What was measured:
[1] = molecular target: T1, MAO-B (Rattus norvegicus, UniProt P19643); assay: MAO-B inhibition activity with rat forebrain (14C-PEA substrate); format: biochemical, rat (male Wistar); details: 10^-5 M, read-out: Inhibiting activity MAO-B (at 10^-5 M)
T1 construct: suspension of 1 part by volume of the forebrains of male Wistar rats; from tissue; host or cells: forebrain of male Wistar rats, suspension in potassium phosphate buffer
T1 sequence (P19643 1-520): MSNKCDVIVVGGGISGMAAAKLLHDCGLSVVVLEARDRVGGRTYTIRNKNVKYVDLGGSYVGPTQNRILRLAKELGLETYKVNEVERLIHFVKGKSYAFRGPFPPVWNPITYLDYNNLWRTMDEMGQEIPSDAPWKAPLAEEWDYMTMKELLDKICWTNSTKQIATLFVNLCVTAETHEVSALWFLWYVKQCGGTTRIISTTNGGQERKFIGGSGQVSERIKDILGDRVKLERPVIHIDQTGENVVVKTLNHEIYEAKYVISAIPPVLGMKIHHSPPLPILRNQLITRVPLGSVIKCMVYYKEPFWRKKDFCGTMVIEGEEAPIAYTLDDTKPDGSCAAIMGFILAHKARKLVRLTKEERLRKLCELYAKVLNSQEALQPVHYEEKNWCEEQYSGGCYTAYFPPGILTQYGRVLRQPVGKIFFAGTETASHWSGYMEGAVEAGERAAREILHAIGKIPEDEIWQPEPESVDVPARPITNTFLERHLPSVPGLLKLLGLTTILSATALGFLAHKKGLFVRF

[2] = molecular target: T2, MAO-A (Rattus norvegicus, UniProt P21396); assay: MAO-A inhibition activity with rat forebrain (14C-5-HT substrate); format: biochemical, rat (male Wistar); details: 5-HT 200 μM, read-out: Inhibiting activity MAO-A, IC50
T2 construct: suspension of 1 part by volume of the forebrains of male Wistar rats; from tissue; host or cells: forebrain of male Wistar rats, suspension in potassium phosphate buffer
T2 sequence (P21396 1-526): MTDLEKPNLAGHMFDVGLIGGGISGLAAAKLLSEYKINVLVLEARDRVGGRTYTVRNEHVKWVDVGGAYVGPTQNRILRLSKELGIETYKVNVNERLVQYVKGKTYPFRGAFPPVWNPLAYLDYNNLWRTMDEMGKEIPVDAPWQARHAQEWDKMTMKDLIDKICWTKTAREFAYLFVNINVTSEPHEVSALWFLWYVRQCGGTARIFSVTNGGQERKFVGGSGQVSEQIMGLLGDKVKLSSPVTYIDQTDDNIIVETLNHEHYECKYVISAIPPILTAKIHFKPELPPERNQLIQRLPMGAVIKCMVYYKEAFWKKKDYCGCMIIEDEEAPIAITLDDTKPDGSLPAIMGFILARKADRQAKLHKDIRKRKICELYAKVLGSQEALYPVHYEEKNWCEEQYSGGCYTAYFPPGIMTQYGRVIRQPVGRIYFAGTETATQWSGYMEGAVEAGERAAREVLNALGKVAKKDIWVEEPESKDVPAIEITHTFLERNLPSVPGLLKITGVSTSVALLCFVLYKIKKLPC
Procedure: Determination of MAO inhibition activity with the use of rat forebrain:
The MAO inhibition activity was determined by a method of Prada et al. (J. Pharmacol. Exp. Ther., 248, 400-414 (1989)).
The enzyme reaction was conducted in 300 μl of a solution having the following composition:
^14 C-labelled enzyme substrate
The enzyme source used was a suspension of 1 part by volume of the forebrains of male Wistar rats in 5 parts by volume of a 0.1M potassium phosphate buffer (pH 7.4). The enzyme source was mixed with the test compound and the mixture was prewarmed at 37° C. for 10 min. Then the enzyme substrate was added thereto to initiate the enzyme reaction. After 10 min, 200 μl of 2N hydrochloric acid was added to terminate the reaction.
As the substrates for MAO-A and MAO-B, 5-HT (serotonin) and PEA (β-phenethylamine) each labelled with ^14 C were used, respectively. The specific radioactivities of 5-HT and PEA were regulated to 11.1 MBq/mmol and 29.6 MBq/mmol, respectively, and the concentrations of them were 200 μM and 20 μM, respectively, in the reaction.
The test compound was dissolved in distilled water so that an intended concentration could be obtained in the enzyme reaction. When the test compound was insoluble in water, it was dissolved in dimethyl sulfoxide to obtain a 10% solution.
Diethyl ether and n-heptane were used as […], respectively. After the termination of the enzyme reaction, 3 ml of the solvent was added to the reaction mixture and shaken for 10 min. After centrifugation at 3,000 rpm for about 10 min, the lower aqueous layer was frozen in dry ice/acetone. The upper organic layer was recovered by decantation and the radioactivity thereof was determined with a liquid scintillation counter.
The inhibiting activities of the test compounds against MAO A and MAO B are given at the concentrations of 10^-7 M and 10^-6 M or by IC50 values.

inhibition at 10 µM [1]: 35% | IC50 [2]: 45 nM
Structure (SMILES): COCC1CN(c2ccc3nc(C(C)(O)CCC#N)sc3c2)C(=O)O1 (centres unmarked) [Example 37]
